According to patent US11466044B2 (WAYNE STATE UNIVERSITY, priority 2017, dated 2022):
Values after ≈ are worked out from the molar mass of the structure shown. Where a name gives a salt, the structure may show the parent alone. Read-outs that look alike come from different tables or passages of the source.

Assays:
MRSA = experiment: MIC by broth microdilution, MRSA isolates; format: cell-based; details: for MIC50: Staphylococcus aureus, MRSA, Table 1 (Example 1)
E coli wild type = experiment: MIC by broth microdilution, wild type E coli; format: cell-based; details: for MIC / MIC50: Escherichia coli; for MIC50: Table 1 (Example 1)
P aeruginosa = experiment: MIC by broth microdilution, P aeruginosa isolates; format: cell-based, Pseudomonas aeruginosa; details: for MIC50: Pseudomonas aeruginosa, Table 1 (Example 1); for MIC: read-out: MIC AG220 P. aerugin
[1] = system: E coli carrying specific resistance determinants; experiment: MIC by broth microdilution, E coli carrying specific resistance determinants; format: cell-based; details: Escherichia coli
[2] = system: Klebsiella pneumonia AG215; experiment: MIC by broth microdilution, Klebsiella pneumonia; format: cell-based; details: strain AG215 Klebsiella pneumonia; for MIC: Klebsiella pneumoniae, read-out: MIC AG215 K. pneumon
[3] = system: Acinetobacter baumannii pittii AG225; experiment: MIC by broth microdilution, Acinetobacter baumannii; format: cell-based; details: strain AG225 Acinetobacter baumannii pittii
[4] = system: Enterobacter cloacae AG290; experiment: MIC by broth microdilution, Enterobacter cloacae; format: cell-based; details: strain AG290 Enterobacter cloacae; for MIC: read-out: MIC AG290 E. cloacae
M. smegmatis SZ380 = experiment: MIC by broth microdilution, M. smegmatis; details: Mycolicibacterium smegmatis, SZ380, read-out: MIC SZ380 M. smegmatis, strain SZ380 Mycobacterium smegmatis
[5] = ATCC25922, strain AG212 E. coli (ATCC25922), read-out: MIC AG212 E. coli
[6] = strain AG220 Pseudomonas aeruginosa ATCC27853

Q: What does the source list for `CC(=O)NC[C@H]1O[C@@H](O[C@@H]2C(O)[C@H](N)CC(N)[C@H]2O[C@H]2OC(CO)[C@@H](O)[C@H](O)C2N)C(O)[C@H]1O[C@H]1O[C@@H](CN)[C@@H](O)C(O)C1N` (stereo partly drawn) [Compound 165, 5″-Acetamido-5″-deoxy-paromomycin-acetate salt]?
A: MIC50 (MRSA; strain AG38, read-out: MIC50 MRSA AG38): 16 to 32 µg/mL; MIC50 (MRSA; strain AG39, read-out: MIC50 MRSA AG39): > 128 µg/mL; MIC50 (MRSA; strain AG42, read-out: MIC50 MRSA AG42): > 128 µg/mL; MIC50 (MRSA; strain AG44, read-out: MIC50 MRSA AG44): 16 µg/mL; MIC (E coli wild type; AG006 wt, Table 2 (Example 1), read-out: MIC E coli AG006 wt): 4 to 8 µg/mL; MIC (E coli wild type; [5]): 16 µg/mL; MIC (E coli wild type; clinical isolate AG160 WT, Table 2 (Example 4), read-out: MIC AG160 E. coli WT): 8 µg/mL; MIC (E coli wild type; engineered strain pH430 WT, Table 2 (Example 4), read-out: MIC pH430 E. coli WT): 8 to 16 µg/mL; MIC50 (E coli wild type; strain AG01, read-out: MIC50 E coli AG01): 64 µg/mL; MIC50 (E coli wild type; strain AG03, read-out: MIC50 E coli AG03): 32 to 64 µg/mL; MIC50 (E coli wild type; strain AG55, read-out: MIC50 E coli AG55): 32 µg/mL; MIC50 (P aeruginosa; strain AG31, read-out: MIC50 P aeruginosa AG31): > 128 µg/mL; MIC50 (P aeruginosa; strain AG32, read-out: MIC50 P aeruginosa AG32): > 128 µg/mL; MIC50 (P aeruginosa; strain AG33, read-out: MIC50 P aeruginosa AG33): > 128 µg/mL; MIC50 (P aeruginosa; strain AG86, read-out: MIC50 P aeruginosa AG86): > 128 µg/mL; MIC (P aeruginosa; [6]): > 64 µg/mL; MIC ([1]; read-out: MIC AG037 E. coli APH(3′)-III): > 64 µg/mL; MIC ([1]; read-out: MIC pH421 E. coli APH(3′)-I): > 64 µg/mL; MIC ([1]; read-out: MIC pH422 E. coli APH(3′)-II): > 64 µg/mL; MIC ([1]; read-out: MIC pH423 E. coli APH(3′)-VI): > 64 µg/mL; MIC [2]: 8 µg/mL; MIC [3]: 8 to 16 µg/mL; MIC [4]: 8 µg/mL; MIC (M. smegmatis SZ380): 32 µg/mL

Q: How did the “MIC50 MRSA AG38” value (MRSA; strain AG38, Table 1 (Example 2)) turn out when `CCC(O)C1OC(OC2C(N)CC(N)C(O)C2OC2OC(CO)C(OC3OC(CN)C(O)C(O)C3N)C2O)C(N)C(O)C1O` (stereo not drawn) [Compound 189] was run?
A: 4 to 8 µg/mL

Q: What about the “MIC AG212 E. coli” value (E coli wild type; strain AG212 E. coli (ATCC25922)) of the same compound?
A: 8 µg/mL (≈ 12.4 µM)

Q: What about the “MIC AG220 P. aerugin” value (P aeruginosa; [6]) of the same compound?
A: >64 µg/mL

Q: And the “MIC AG215 K. pneumon” value [2]?
A: 2 µg/mL (≈ 3.11 µM)

Q: What about the “MIC AG225 A. baumannii” value [3] of the same compound?
A: 4 to 8 µg/mL

Q: What about the “MIC AG290 E. cloacae” value [4] of the same compound?
A: 2 to 4 µg/mL

Q: What does the source list for `NCC1O[C@H](O[C@@H]2C(N)C[C@@H](N)C(O)[C@H]2O[C@@H]2O[C@H](CO)[C@H](F)C2O)[C@@H](N)C(O)[C@@H]1O` (stereo partly drawn) [Compound 093]?
A: MIC (E coli wild type; ATCC25922, read-out: MIC AG212 E. coli, strain AG212 E. coli (ATCC25922)): 2 µg/mL (≈ 4.38 µM); MIC (P aeruginosa; [6]): > 64 µg/mL; MIC [2]: 1 to 2 µg/mL (≈ 2.19 to 4.38 µM); MIC [3]: 16 µg/mL (≈ 35.1 µM); MIC [4]: 2 µg/mL (≈ 4.38 µM); MIC (M. smegmatis SZ380): 8 µg/mL (≈ 17.5 µM)

Q: For `NC[C@@H]1O[C@H](O[C@@H]2C(O)[C@H](O[C@@H]3C(O)[C@H](N)CC(N)[C@H]3O[C@H]3OC4C(O)CCCO[C@H]4[C@H](O)C3N)O[C@@H]2CO)C(N)C(O)[C@@H]1O` (stereo partly drawn) [Compound 199], which MIC (E coli wild type; [5]) is on record?
A: > 32 µg/mL

Q: What about the MIC (P aeruginosa; [6]) of the same compound?
A: > 32 µg/mL

Q: What about the MIC [2] of the same compound?
A: 32 µg/mL (≈ 48.8 µM)

Q: What about the MIC [3] of the same compound?
A: > 32 µg/mL

Q: And the MIC [4]?
A: > 32 µg/mL

Q: For `CCO[C@@H]1C(CN)O[C@H](O[C@@H]2C(N)C[C@@H](N)C(O)[C@H]2O[C@@H]2O[C@H](CO)[C@H](OCCN)C2O)[C@@H](N)C1O` (stereo partly drawn) [Compound 073], which MIC (E coli wild type; [5]) is on record?
A: 8 µg/mL (≈ 15.2 µM)

Q: What about the MIC (P aeruginosa; [6]) of the same compound?
A: > 128 µg/mL

Q: And the MIC [2]?
A: 4 µg/mL (≈ 7.61 µM)

Q: What about the MIC [3] of the same compound?
A: 8 µg/mL (≈ 15.2 µM)

Q: What about the MIC [4] of the same compound?
A: 4 µg/mL (≈ 7.61 µM)

Q: And the MIC (M. smegmatis SZ380)?
A: 8 µg/mL (≈ 15.2 µM)

Q: `NCC1O[C@H](O[C@@H]2C(O)[C@H](O[C@@H]3C(O)[C@H](N)CC(N)[C@H]3O[C@H]3OC(CO)[C@@H](CCCO)C(O)[C@@H]3N)O[C@@H]2CO)C(N)C(O)[C@@H]1O` (stereo partly drawn) [Compound 195] was tested. Which MIC (E coli wild type; [5]) did it give?
A: 8 µg/mL (≈ 12.2 µM)

Q: And the MIC (P aeruginosa; [6])?
A: 64 µg/mL (≈ 97.3 µM)

Q: What about the MIC [2] of the same compound?
A: 2 to 4 µg/mL (≈ 3.04 to 6.08 µM)

Q: And the MIC [3]?
A: 8 µg/mL (≈ 12.2 µM)

Q: And the MIC [4]?
A: 4 µg/mL (≈ 6.08 µM)

Q: How did the MIC (E coli wild type; [5]) turn out when `CCC[C@@H]1C(CNCCO)O[C@H](O[C@@H]2C(N)C[C@@H](N)C(O)[C@H]2O[C@@H]2O[C@H](CNCCO)[C@H](O[C@H]3OC(CN)[C@@H](O)C(O)C3N)C2O)[C@@H](N)C1O` (stereo partly drawn) [Compound 193] was run?
A: 4 µg/mL (≈ 5.5 µM)

Q: What about the MIC (P aeruginosa; [6]) of the same compound?
A: > 64 µg/mL

Q: What about the MIC [2] of the same compound?
A: 2 µg/mL (≈ 2.75 µM)

Q: What about the MIC [3] of the same compound?
A: 32 µg/mL (≈ 44 µM)

Q: What about the MIC [4] of the same compound?
A: 2 µg/mL (≈ 2.75 µM)
